Results as given in US9981970B2, “Bicyclic ureas and thiadiazolidine-1, 1-dioxides as CETP inhibitors” (Merck Sharp & Dohme Corp., priority 2013, dated 2018).

Legend:
[1] = molecular target: T1, endogenous CETP from serum (Homo sapiens, UniProt P11597); assay: RTA assay in 95% human serum (in vitro radioactive assay of CETP-catalyzed CE and TG transfer); type: biochemical; details: Table 1; data generally obtained using the RTA assay in 95% human serum; read-out: IC50
T1 construct: yielding a concentration of approximately 15 nM endogenous CETP in the assay; from tissue; host or cells: human serum
T1 sequence (P11597 18-493): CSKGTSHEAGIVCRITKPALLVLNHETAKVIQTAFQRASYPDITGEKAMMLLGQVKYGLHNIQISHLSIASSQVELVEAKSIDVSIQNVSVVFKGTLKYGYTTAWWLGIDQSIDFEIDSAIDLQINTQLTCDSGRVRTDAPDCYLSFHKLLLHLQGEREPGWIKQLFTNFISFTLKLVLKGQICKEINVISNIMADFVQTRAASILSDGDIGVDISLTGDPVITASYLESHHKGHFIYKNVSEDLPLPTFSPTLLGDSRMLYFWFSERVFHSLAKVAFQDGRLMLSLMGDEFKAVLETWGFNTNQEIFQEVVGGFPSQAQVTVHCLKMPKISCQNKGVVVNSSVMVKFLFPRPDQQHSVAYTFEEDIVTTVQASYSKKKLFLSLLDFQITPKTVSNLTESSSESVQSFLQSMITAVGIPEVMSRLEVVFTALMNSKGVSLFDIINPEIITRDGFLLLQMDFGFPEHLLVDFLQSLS
Excerpt: In Vitro Radioactive Assays of CETP-Catalyzed CE and TG Transfer (RTA Assay)
Reagents and sources are: [3H] cholesteryl oleate (GE #TRK.886), [3H] Triolein (Perkin-Elmer NET-431), Butylated hydroxyl toluene (Aldrich, #D4740-4), DOPC (Sigma, # P6354), Sodium Bromide (Fisher scientific #S255-500), PEG 8000 (Fisher, #BP233-1), and human HDL (Intracel Corp #RP-036).
Both assays measure the transfer of [3H] cholesteryl oleate or [3H] triolein from exogenous LDL to HDL.
Radiolabeled donor particles are generated by first combining 100 μl of 200 μM butylated hydroxyl toluene in CHCl3, 216 μL of 21.57 mM DOPC in EtOH, and either 500 μCi [3H]-triolein (Perkin Elmer #NET-431) or 500 μCi [3H]-cholesteryl oleate (GE #TRK886) in a glass tube. Reagents are mixed, dried under nitrogen, and then resuspended in 2 mL of 50 mM Tris, 27 μM EDTA at pH 7.4. After a brief vortex, the solution is sonicated until clear and mixed with 20 mL of fresh human serum. The mixture is incubated overnight at 37° C. The [3H] labeled LDL substrate is separated at 1.063 g/ml density by sequential ultracentrifugal flotation in NaBr according to the method of Havel, Eder, et al., 1955, and Chapman, Goldstein, et al., 1981. Once isolated the particles are dialyzed 3× in CETP buffer (50 mM Tris, pH 7.4, 100 mM NaCl, 1 mM EDTA). Human HDL is purchased from Intracel and used as the acceptor particles.
Transfer assays are performed in a 96-well v-bottom polypropylene plate. For the RTA using recombinant CETP (2% RTA), an assay cocktail is prepared with the final concentrations 128 μg/mL HDL, 20 nM rCETP, 2% human serum, and 1×CETP buffer. 1 μL of each test compound diluted in DMSO is added to 47 μL of assay cocktail per well and incubated at 37° C. for 1 hour. To initiate the transfer reaction, 2 μL radiolabeled LDL is added. After an additional 60 min of incubation at 37° C., the transfer action is terminated by precipitation of LDL with an equal volume of 20% WN PEG 8000. The plates are centrifuged at 2000 rpm for 30 minutes at 4° C. A 40 μL aliquot of the HDL-containing supernatant is transferred to a Packard Optiplate™ with 200 μL of MicroScint™ 20. After mixing, plates are counted by liquid scintillation. Counts present in the supernatant for blanks (wells containing only HDL acceptor, CETP buffer and DMSO) are subtracted from those containing test compounds and used to correct for non-specific transfer.
This is then combined with HDL and CETP buffer and the reaction proceeds as above and is terminated as described.
Comparison of the counts of samples with inhibitors to an uninhibited (DMSO only) positive control yield a percent inhibition. A plot of percent inhibition vs. log of inhibitor concentration, fit to a Sigmoidal 4 parameter equation is used to calculate IC50.
Starting materials are commercially available or are made using known procedures or as shown below. The examples may be synthesized according to the general schemes provided below and by using the synthetic intermediates that are described. […] When compounds of Formula I are mentioned herein, such compounds include compounds defined generically by Formula I and also the specific examples disclosed herein.

[2] = patients on anacetrapib with baseline statin therapy compared with patients treated with just a statin; cited from earlier work

Row | SMILES | IC50 [1] [nM] | decrease of LDL-C [2] [%] | increase of HDL-C [2] [%]
1 | COc1ccc(-c2ccc(C(=O)O)cc2C)cc1-c1ccc(C(F)(F)F)cc1[C@@H]1CC[C@H]2[C@@H](c3ccnc(C(F)(F)F)c3)NC(=O)N12 [Example 19, 4′-methoxy-2-methyl-2″-{(1R,5S,7aS)-3-oxo-1-[2-(trifluoromethyl)pyridin-4-yl]hexahydro-1H-pyrrolo[1,2-c]imidazol-5-yl}-4″-(trifluoromethyl)-1,1′:3′,1″-terphenyl-4-carboxylic acid] | 4870 | – | –
2 | COc1ccc(-c2ccc(C(=O)O)cc2C)cc1-c1cnc(C(F)(F)F)cc1[C@@H]1CC[C@H]2[C@@H](c3cc(C(F)(F)F)cc(C(F)(F)F)c3)NC(=O)N12 [Example 20, 3′-[4-{(1R,5S,7aS)-1-[3,5-bis(trifluoromethyl)phenyl]-3-oxohexahydro-1H-pyrrolo[1,2-c]imidazol-5-yl}-6-(trifluoromethyl)pyridin-3-yl]-4′-methoxy-2-methylbiphenyl-4-carboxylic acid] | 1570 | – | –
3 | COc1ccc(-c2ccc(C(=O)O)cc2C)cc1-c1ccc(C(F)(F)F)cc1[C@@H]1CC[C@H]2[C@@H](c3cc(C(F)(F)F)cc(C(F)(F)F)c3)NS(=O)(=O)N12 [Example 22, 2″-{(3R,3aS,6S)-3-[3,5-bis(trifluoromethyl)phenyl]-1,1-dioxidohexahydropyrrolo[1,2-b][1,2,5]thiadiazol-6-yl}-4′-methoxy-2-methyl-4″-(trifluoromethyl)-1,1′,:3′,1″-terphenyl-4-carboxylic acid] | 984 | – | –
4 | COc1ccc(C2CCC(C(=O)O)CC2)cc1-c1ccc(C(F)(F)F)cc1[C@@H]1CC[C@H]2[C@@H](c3cc(C(F)(F)F)cc(C(F)(F)F)c3)NS(=O)(=O)N12 (stereo partly drawn) [Example 23, 4-[2′-{(3R,3aS,6S)-3-[3,5-bis(trifluoromethyl)phenyl]-1,1-dioxidohexahydropyrrolo[1,2-b][1,2,5]thiadiazol-6-yl}-6-methoxy-4′-(trifluoromethyl)biphenyl-3-yl]cyclohexanecarboxylic acid] | 268 | – | –
5 | COc1ncc(-c2ccc(C(=O)O)cc2C)cc1-c1ccc(C(F)(F)F)cc1[C@@H]1CC[C@H]2[C@@H](c3cc(F)cc(C(F)(F)F)c3)NS(=O)(=O)N12 [Example 24, 4-{5-[2-{(3R,3aS,6S)-3-[3-fluoro-5-(trifluoromethyl)phenyl]-1,1-dioxidohexahydropyrrolo[1,2-b][1,2,5]thiadiazol-6-yl}-4-(trifluoromethyl)phenyl]-6-methoxypyridin-3-yl}-3-methylbenzoic acid] | 1260 | – | –
6 | COc1ccc(CCC(=O)O)cc1-c1ccc(C(F)(F)F)cc1[C@@H]1CC[C@H]2[C@@H](c3cc(F)cc(C(F)(F)F)c3)NS(=O)(=O)N12 [Example 25, 3-[2′-{(3R,3aS,6S)-3-[3-fluoro-5-(trifluoromethyl)phenyl]-1,1-dioxidohexahydropyrrolo[1,2-b][1,2,5]thiadiazol-6-yl}-6-methoxy-4′-(trifluoromethyl)biphenyl-3-yl]propanoic acid] | 3120 | – | –
7 | COc1cc(F)c(C(C)C)cc1-c1ccc(C(F)(F)F)cc1CN1C(=O)O[C@H](c2cc(C(F)(F)F)cc(C(F)(F)F)c2)[C@@H]1C [anacetrapib] | – | 40 | 138
